Results published in patent publication US4950669A, “Methods and compositions for promoting growth of animals” (priority 1987, dated 1990).

Legend:
[1] = 44-day floor-pen study in chickens (Example XV); assay type: in vivo; conditions: 44 days
Source text: There were 60 chickens per replication, 3 replications per treatment. One group of controls was unmedicated, while a second control group received Bacitracin in the feed at 30 g/ton.

[2] = rat, in vivo, ip, 50 mg/kg
Method: Per os, in the mouse still, the LD50 is above 2000 mg/kg. In the rat, after i.p. treatment with 50 mg/kg there was, within 3 hours from administration, a maximum lowering of the body temperature of 0.6° in respect to the controls treated with the only suspending medium.

[3] = pig growth study, intramuscular injection (Example X); assay type: in vivo; conditions: pigs, 1 mg/kg i.m. every seven days
Method: N-morpholinyl-β-benzoylpropionamide (NMBP) was formulated as an injectable product at a concentration of 2% in polyethylene glycol. The formulation was administered to pigs by intramuscular injection at a dosage of 1 mg/kg, once every seven days. Pigs averaged 52.66 kg at initiation and were terminated at 90.8 kg. Control animals received no injections.

[4] = battery study in chickens (Example XVI); assay type: in vivo; conditions: for Mortality: unmedicated 1.1
Method: A battery study was conducted in which N-morpholinyl-β-benzoyl-propionamide was administered to chickens in their feed at levels at 2.5 ppm and 5.0 ppm. The control group was unmedicated. Each medicated treatment had 10 replications of 8 birds per replication, with non-medicated controls having 20 replications of 8 birds per replication. Birds were weighed to determine weight gain and feed-to-gain ratio on days 7, 14 and 21.

[5] = 28-day chicken growth study, feed or i.m. injection (Example XII); assay type: in vivo, chickens
Method: Portions of N-morpholinyl-β-benzoyl-propionamide were admixed with chicken feed at 1 mg/kg and a 2 mg/kg, respectively. Another portion was formulated into an injectable formulation at a concentration of 2% in polyethylene glycol. The N-morpholinyl-β-benzoylpropionamide was then administered to chickens, either by i.m. injection or in feed, over 28-day period. One group of controls received no medication, while another group of controls received Bacitracin MD in its feed at 30 g/ton. Those chickens receiving intramuscular injections were injected once a week with a dosage of either 1 mg/kg or 2 mg/kg, based on body weight. Birds were weighed on days 0, 14 and 28.

[6] = 21-day battery study in chickens (Example XIII); assay type: in vivo
Method: N-morpholinyl-β-benzoyl-propionamide was admixed with chicken feed at concentrations of 1.0 ppm, 7.5 ppm and 15 ppm. A 21-day battery study was conducted with the NMBP-containing feed. One group of controls was unmedicated, while a second control group received Bacitracin MD in its feed at 30 g/ton. The birds were fed ad libitum and weighed on days 7, 14 and 21. There were 10 birds per replication, 4 replications in controls and 2 replications per drug treatment.

[7] = rabbit, in vivo, ip, 100 mg/kg
[8] = hypotensive effect in the awake rabbit; assay type: in vivo; conditions: same dosage (100 mg/kg) i.p.
[9] = organ weight variations in the rat after per os treatment; assay type: in vivo; conditions: 300 mg/kg per os
[10] = Injection 1 mg/kg i.m. once a week, Day 14
[11] = Injection 1 mg/kg i.m. once a week, Day 28
[12] = Injection 2 mg/kg i.m. once a week, Day 14
[13] = Injection 2 mg/kg i.m. once a week, Day 28

O=C(CCC(=O)N1CCOCC1)c1ccccc1 [NMBP, N-morpholinyl-β-benzoyl-propionamide]
Average Live Bird Weight ([1]; feed 1.0 ppm): 2.13 kg
Feed Conversion ([1]; feed 1.0 ppm): 1.72
Average Live Bird Weight ([1]; feed 2.5 ppm): 2.14 kg
Feed Conversion ([1]; feed 2.5 ppm): 1.73
Average Live Bird Weight ([1]; feed 5 ppm): 2.08 kg
Feed Conversion ([1]; feed 5 ppm): 1.75
Average Live Bird Weight ([1]; feed 10 ppm): 2.14 kg
Feed Conversion ([1]; feed 10 ppm): 1.72
Average Live Bird Weight ([1]; feed 20 ppm): 2.12 kg
Feed Conversion ([1]; feed 20 ppm): 1.72
Average Live Bird Weight ([1]; feed 40 ppm): 2.10 kg
Feed Conversion ([1]; feed 40 ppm): 1.75
Average Live Bird Weight ([1]; feed 60 ppm): 2.14 kg
Feed Conversion ([1]; feed 60 ppm): 1.75
maximum lowering of the body temperature in respect to the controls [2]: 0.6 °
improvement of average daily gain as compared with controls [3]: about 10%
improvement of feed-to-gain ratio as compared with controls [3]: about 4%
average daily gain (ADG) ([3]; control 0.867): 0.958 kg
average daily feed consumption (ADF) ([3]; control 2.76): 2.96 kg
feed-to-gain ratio (F/G) ([3]; control 3.18): 3.03
Feed Conversion ([4]; feed 2.5 ppm, D + 7): 1.67
Weight Gain ([4]; feed 2.5 ppm, D + 7): 256 g
Feed Conversion ([4]; feed 2.5 ppm, D + 14): 1.98
Weight Gain ([4]; feed 2.5 ppm, D + 14): 526 g
Feed Conversion ([4]; feed 2.5 ppm, D + 21): 1.70
Weight Gain ([4]; feed 2.5 ppm, D + 21): 1075 g
Mortality ([4]; feed 2.5 ppm): 1.4
Feed Conversion ([4]; feed 5.0 ppm, D + 7): 1.65
Weight Gain ([4]; feed 5.0 ppm, D + 7): 262 g
Feed Conversion ([4]; feed 5.0 ppm, D + 14): 2.02
Weight Gain ([4]; feed 5.0 ppm, D + 14): 523 g
Feed Conversion ([4]; feed 5.0 ppm, D + 21): 1.71
Weight Gain ([4]; feed 5.0 ppm, D + 21): 1027 g
Mortality ([4]; feed 5.0 ppm): .8
Average Weight ([5]; Feed 1 mg/kg, Day 0 (baseline)): 98.9 g
Average Weight ([5]; Feed 1 mg/kg, Day 14): 462.8 g
Feed Conversion ([5]; Feed 1 mg/kg, Day 14): 1.38
Weight Gain ([5]; Feed 1 mg/kg, Day 14): 363.9 g
Average Weight ([5]; Feed 1 mg/kg, Day 28): 947.6 g
Feed Conversion ([5]; Feed 1 mg/kg, Day 28): 1.64
Weight Gain ([5]; Feed 1 mg/kg, Day 28): 848.7 g
Average Weight ([5]; Feed 2 mg/kg, Day 0 (baseline)): 98.5 g
Average Weight ([5]; Feed 2 mg/kg, Day 14): 474.3 g
Feed Conversion ([5]; Feed 2 mg/kg, Day 14): 1.38
Weight Gain ([5]; Feed 2 mg/kg, Day 14): 375.8 g
Average Weight ([5]; Feed 2 mg/kg, Day 28): 1013.5 g
Feed Conversion ([5]; Feed 2 mg/kg, Day 28): 1.56
Weight Gain ([5]; Feed 2 mg/kg, Day 28): 915.0 g
Average Weight ([5]; Injection 1 mg/kg i.m. once a week, Day 0 (baseline)): 98.7 g
Average Weight [5, 10]: 460.6 g
Feed Conversion [5, 10]: 1.37
Weight Gain [5, 10]: 361.9 g
Average Weight [5, 11]: 938.2 g
Feed Conversion [5, 11]: 1.61
Weight Gain [5, 11]: 839.5 g
Average Weight ([5]; Injection 2 mg/kg i.m. once a week, Day 0 (baseline)): 98.6 g
Average Weight [5, 12]: 456.3 g
Feed Conversion [5, 12]: 1.38
Weight Gain [5, 12]: 357.7 g
Average Weight [5, 13]: 971.4 g
Feed Conversion [5, 13]: 1.56
Weight Gain [5, 13]: 872.8 g
F/G ([6]; feed 1 ppm, Day 7): 1.38
Weight Gain ([6]; feed 1 ppm, Day 7): 341 g
F/G ([6]; feed 1 ppm, Day 14): 1.47
Weight Gain ([6]; feed 1 ppm, Day 14): 715 g
F/G ([6]; feed 1 ppm, Day 21): 1.62
Weight Gain ([6]; feed 1 ppm, Day 21): 1152 g
F/G ([6]; feed 7.5 ppm, Day 7): 1.40
Weight Gain ([6]; feed 7.5 ppm, Day 7): 325 g
F/G ([6]; feed 7.5 ppm, Day 14): 1.49
Weight Gain ([6]; feed 7.5 ppm, Day 14): 697 g
F/G ([6]; feed 7.5 ppm, Day 21): 1.60
Weight Gain ([6]; feed 7.5 ppm, Day 21): 1113 g
F/G ([6]; feed 15 ppm, Day 7): 1.42
Weight Gain ([6]; feed 15 ppm, Day 7): 318 g
F/G ([6]; feed 15 ppm, Day 14): 1.47
Weight Gain ([6]; feed 15 ppm, Day 14): 688 g
F/G ([6]; feed 15 ppm, Day 21): 1.54
Weight Gain ([6]; feed 15 ppm, Day 21): 1164 g
electrocardiographic variations compared to the controls [7]: no electrocardiographic variations
hypotensive effect [8]: not hypotensive
organ weight variation, suprarenal gland ([9]; controls +0.011): +0.011%
organ weight variation, heart ([9]; controls +0.257): +0.304%
organ weight variation, lung ([9]; controls +0.598): +0.675%
organ weight variation, kidney ([9]; controls +0.65): +0.71%
organ weight variation, liver ([9]; controls +3.22): +3.63%
